Reference: PubChem BioAssay (NCI)
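Cultured in 96-well plates, cells were exposed to test compound for 48 hours across five concentrations. GI50 is the concentration that inhibits growth by half. Definition used: TGI = concentration required for complete inhibition of growth.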

Key:
Assay in all cases: DTP human tumour cell line panel, 48 h
LOX IMVI melanoma = tested on: LOX IMVI melanoma
HOP-92 NSCLC = tested on: HOP-92 NSCLC
HOP-62 NSCLC = tested on: HOP-62 NSCLC
SF-539 CNS = tested on: SF-539 CNS
SF-268 CNS = tested on: SF-268 CNS
MDA-MB-231 breast = tested on: MDA-MB-231 breast
OVCAR-5 ovarian = tested on: OVCAR-5 ovarian
SK-MEL-2 melanoma = tested on: SK-MEL-2 melanoma
NCI-H460 lung = tested on: NCI-H460 lung
M14 melanoma = tested on: M14 melanoma

Row | SMILES | TGI (LOX IMVI melanoma) [µM] | TGI (HOP-92 NSCLC) [µM] | TGI (HOP-62 NSCLC) [µM] | TGI (SF-539 CNS) [µM] | TGI (SF-268 CNS) [µM] | TGI (MDA-MB-231 breast) [µM] | TGI (OVCAR-5 ovarian) [µM] | TGI (SK-MEL-2 melanoma) [µM] | TGI (NCI-H460 lung) [µM] | TGI (M14 melanoma) [µM] | GI50 (LOX IMVI melanoma) [µM] | GI50 (HOP-92 NSCLC) [µM] | GI50 (HOP-62 NSCLC) [µM] | GI50 (SF-539 CNS) [µM] | GI50 (SF-268 CNS) [µM] | GI50 (MDA-MB-231 breast) [µM] | GI50 (OVCAR-5 ovarian) [µM] | GI50 (SK-MEL-2 melanoma) [µM] | GI50 (NCI-H460 lung) [µM] | GI50 (M14 melanoma) [µM]
1 | CCCc1nc(Cl)nc(Cl)c1Cl | 1.62 | 0.532 | 2.44 | 2.94 | 4.17 | 2.07 | 1.74 | 2.07 | 5.66 | 1.13 |  |  |  |  |  |  |  |  |  | 
2 | CC(NC(=O)Cc1ccc(C(F)(F)P(=O)(OCc2ccc([N+](=O)[O-])o2)N(C)CCCCCl)cc1)c1ccc(OCC2CCCCC2)c(C(N)=O)c1 (stereo not drawn) | 5.87 | 37.2 | 12.1 | 13.4 | 15.5 | 35.3 | 33.1 | > 48.5 | 26.2 | 1.99 | 2.06 | 16.5 | 4.08 | 6.33 | 4.8 | 15.7 | 15.6 | 6.48 | 8.26 | 0.398
3 | C/C(=C(/c1ccccc1)c1ccc(OCC(O)CNCCN2CCOCC2)cc1)c1ccccc1 (stereo not drawn) | 3.12 | 4.81 | 5.69 | 2.99 | 15.4 | 3.83 | 20.5 | 6.24 | 3.4 | 3.85 | 1.72 | 1.5 | 2.29 | 1.63 | 4 | 1.78 | 6.48 | 2.5 | 1.8 | 1.88
4 | O=C(c1ccc2ccccc2c1)c1nc2cc(F)ccc2[n+]([O-])c1C(F)(F)F | 26.9 | 36.5 | > 100 | 48.9 | 38.1 | 38 | 48.9 | 35.8 | 38 | 34 | 13.8 | 19.5 | 34.4 | 22 | 18.5 | 18.8 | 23.1 | 18.7 | 18.8 | 17.8
5 | COc1cc([C@@H]2c3cc4c(cc3[C@H](OC(C)=O)[C@H]3COC(=O)[C@@H]23)OCO4)cc(OC)c1OC | > 100 | > 100 | > 100 | 0.526 |  | 3.44 | > 100 |  | 3.3 | 5.3 | 0.551 | 2.55 | 0.4 | 0.216 | 0.358 | 0.388 | 0.523 | 0.342 | 0.322 | 0.242
6 | COc1cc(F)ccc1-c1cc(Nc2cc(CS(C)(=N)=O)ccn2)ncc1F (stereo not drawn) | > 100 | 0.314 | > 100 | 0.272 | > 100 | > 100 | > 100 | 0.437 | > 100 | > 37.6 | 0.0307 | 0.0214 | 0.0624 | 0.0366 | 0.0689 | 0.0974 | 0.0488 | 0.135 | 0.0593 | 0.0649
7 | CN(Cc1ccc(F)cc1)c1ccc(CO)c(Cl)c1 | > 68.9 | 24 | > 87.6 | > 100 | > 100 | > 100 | 2.37 | 33.8 | 13.9 | > 76.9 | 22.9 | 3.87 | 5.13 | 40.7 | 37.8 | 28.7 | 0.426 | 8.32 | 1.41 | 23.3
8 | C=C1C(=O)O[C@H]2[C@H]1CC/C(COC(=O)NCc1ccc(Cn3c(=O)sn(CCCCC)c3=O)cc1)=C\CC[C@@]1(C)O[C@@H]21 | 2.96 | 3.01 | 22.6 | 3.2 | 3.97 | 3.46 | 4.91 | 5.46 | 12.5 | 4.76 | 1.59 | 1.38 | 9.53 | 1.64 | 1.88 | 1.72 | 2.01 | 2.41 | 3.42 | 1.89
9 | ClCc1cccc(Cn2cnc3c(Cl)nc(Cl)nc32)c1 | 3.4 | 3.63 | 4.38 | 14.1 | 6.64 | 3.76 | 20.2 | 4.44 | 6.25 | 3.41 | 1.69 | 1.84 | 2.29 | 2.2 | 2.5 | 1.95 | 6.52 | 1.98 | 2.36 | 1.79
10 | CCN1[C@@H](C(=O)NC23CCC(C(=O)O)(CC2)CC3)[C@H](c2cccc(Cl)c2F)[C@]2(C(=O)Nc3cc(Cl)ccc32)C12CCCCC2 | 4.88 | 6.45 | 13.6 | 10.6 | 15.1 | 27.4 | 17.8 | 5.18 | 1.45 | 13.1 | 0.259 | 2.15 | 3.19 | 2.78 | 3.1 | 5.85 | 3.74 | 2.02 | 0.0909 | 3.22
11 | CSc1ncnc2c1ncn2CC(=O)C1CCC2C3CCC4=CC(=O)CCC4(C)C3CCC12C (stereo not drawn) | 19.4 | > 88.3 | > 30.1 | 44.7 | > 100 | 27.7 | > 100 | 11.6 | 18.9 | 8.88 |  |  |  |  |  |  |  |  |  | 
12 | Cc1cc(CCl)c(C)cc1CCl | 3.79 | 9.55 | 3.79 | 4.26 | 6.08 | 18.6 | 8.62 | 13.3 | 1.43 | 30.5 | 0.883 | 2.52 | 1.58 | 1.02 | 1.02 | 4.08 | 2.94 | 3.27 | 0.12 | 3.54
13 | O=C(CC1(O)C(=O)Nc2ccc(F)cc21)c1ccc(C(=O)NCC2CCC3(CC2)OOC2(CCCCC2)OO3)cc1 (stereo not drawn) | 1.27 | 3.82 | 12.3 | 14.8 | 30.8 | 29.9 | 36.5 | 20.7 | 6.47 | 39.3 | 0.309 | 1.91 | 3.64 | 3.64 | 10.8 | 9.92 | 15.7 | 5.95 | 2.52 | 12.2
14 | COc1ccc(-c2c(C#N)c(N)nc(N3CCOCC3)c2C#N)cc1 | 36.9 | 87.7 | 70.4 | > 100 | > 100 | 35.1 | 59.9 | > 100 | > 100 | 72.8 | 14.4 | 14.3 | 14.8 | 32.1 | 32.3 | 11 | 13.9 | 27.1 | 29.9 | 22.6
15 | C=C(CN1CCc2c([nH]c3ccccc23)C1)c1ccc(C(=O)Nc2ccccc2N)cc1 | 10.2 | 11.4 | 20.8 | 9.81 | 10.8 | 12.9 | 31.6 | 22 | 21 | 14.7 | 4.52 | 1.66 | 4.08 | 2.76 | 2.89 | 2.74 | 7.15 | 4.54 | 3.57 | 4.13
16 | O=[N+]([O-])c1cc([As](Br)c2ccc(O)c([N+](=O)[O-])c2)ccc1O | 3.96 | 2.96 | 4.87 | 3.93 | 5.59 | 3.11 | 4.2 | 2.59 | > 25.6 | 4.33 |  |  |  |  |  |  |  |  |  | 
17 | CCn1cc(/C=C2\Oc3cc(OCC#N)ccc3C2=O)c2cc(OC)ccc21 | > 100 | 68.6 | > 46.6 | 0.818 | > 55.6 | > 77.3 | > 100 | > 68.5 | > 100 | > 100 | 0.238 | 11.2 | 0.622 | 0.113 | 1.48 | 1.47 | 1.41 | 0.807 | 0.347 | 0.119
18 | CN(C)N1C(=O)SCC(c2ccccc2)(c2ccccc2)C1=O | > 100 | > 100 | > 100 | > 100 | > 100 | > 100 | > 100 | > 100 | > 100 | > 100 |  |  |  |  |  |  |  |  |  | 
19 | COc1cc(OCc2cccc(-c3ccccc3)c2C)cc(OC)c1CN1CCCCC1C(=O)NCCOCCOCCN (stereo not drawn) | 3.21 | 5.45 | 6.06 | 3.25 | 5.5 | 3.84 | 14.9 | 4.03 | 3.73 | 3.57 | 1.7 | 1.57 | 2.3 | 1.74 | 2.1 | 1.8 | 3.73 | 1.96 | 1.83 | 1.84
20 | NC(=O)c1cccnc1 | > 100 | > 100 | > 100 | > 100 | > 100 | > 100 | > 100 | > 100 | > 100 | > 100 | > 100 | > 100 | > 100 | > 100 | > 100 | > 100 | > 100 | > 100 | > 100 | > 100
